Results: patent US20240398767A1, “INHIBITORS OF THE MTDH-SND1 PROTEIN COMPLEX FOR CANCER THERAPY” (The Trustees of Princeton University, priority 2021, published 2024)

Legend:
MTDH-SND1 interaction [1] = biological target: T1, MTDH-SND1 interaction (Homo sapiens, UniProt Q7KZF4); test: Cell-free split-luciferase (Split-luc) assay, SND1-NLuc + CLuc-MTDH; assay type: biochemical; settings: for IC50: split-luc assay in various concentrations; for split-luc activity: 50 μM peptide
T1 construct: made in house; host or cells: HEK293T cells, transient transfection of pcDNA3.1 plasmids; crude cleared lysates, each fusion expressed separately and the lysates pre-mixed
From the text: To generate a luciferase-based screening system, firefly luciferase was split into N- and C-terminals according to previous studies^21-23. Both N- and C-terminal domains alone have almost undetectable luciferase activity (FIG. 10A). Next, the two fragments were fused to SND1 and MTDH interaction domains respectively to generate SND1-NLuc and CLuc-MTDH (Split-luc) (FIG. 10A, left, and Table 3). […] However, when SND1-NLuc+CLuc-MTDH were co-expressed, N- and C-terminal domains of the luciferase fragments were brought close to each other due to the interaction between SND1 and MTDH, and substantial luciferase activity was reconstituted (FIG. 3A, left and FIG. 10A).
(§1) Luciferase-based screening. Seed HEK293T cells on 3×15 cm dish at 18-24 hr before transfection with 7-8×10^6 cells per dish targeting 70-80% confluence when start transfection. 20 μg of pCDNA3.1-SND1-NLuc, pCDNA3.1-CLuc-MTDH, or 2 μg of pCDNA3.1-NLuc-CLuc plasmids that described above were transfected to each dish. 72 hr after transfection the cells were lysed with 5 ml of luciferase lysis buffer (2 mM EDTA, 20 mM DTT, 10% glycerol, 1% Triton X-100, 25 mM Tris base, adjusted to pH7.8 with H3PO4) at 4° C. for 20 min. The protein lysates were centrifuged at 13,000 rpm for 10 min, and the supernatant were collected.
For small chemical compound screening, white, flat-bottom, solid 384-well plates were used. Compounds were added into each well as 0.1 μl of 10 mM DMSO solution (or same amount of DMSO, serve as control). The first and last columns were free, and MTDH wild type (PNSDWNAPAEEWGNW) or mutant (PNSDANAPAEEAGNW) peptides were added as positive and negative controls right before screening. Same amount of MTDH-CLuc and SND1-NLuc were pre-mixed at 4° C. for 30 min to generate split-luc. 5 μl of split- or linked-luc was added into each well. 15 μl of luciferase assay buffer (25 mM Glycylglycine pH 7.8, 15 mM K3PO4 pH 7.8, 15 mM MgSO4, 4 mM EGTA, 2 mM ATP added just before use, 10 mM DTT added just before use and 1 mM D-Luciferin added just before use) was then added into each well to get a 20 μl reaction system with 50 μM of compounds (peptides) in each well. The plates were incubated at 4° C. for 1 hr and luciferase activity at each well was measured.
The inhibitory efficiency of each compound was calculated as following: (signal at DMSO well−signal at compound well)/signal at DMSO well. MTDH wild type or mutant peptide in each plate was served as positive and negative controls to monitor the data quality of each plate.
T1 sequence (Q7KZF4 with tags, fused parts or gaps): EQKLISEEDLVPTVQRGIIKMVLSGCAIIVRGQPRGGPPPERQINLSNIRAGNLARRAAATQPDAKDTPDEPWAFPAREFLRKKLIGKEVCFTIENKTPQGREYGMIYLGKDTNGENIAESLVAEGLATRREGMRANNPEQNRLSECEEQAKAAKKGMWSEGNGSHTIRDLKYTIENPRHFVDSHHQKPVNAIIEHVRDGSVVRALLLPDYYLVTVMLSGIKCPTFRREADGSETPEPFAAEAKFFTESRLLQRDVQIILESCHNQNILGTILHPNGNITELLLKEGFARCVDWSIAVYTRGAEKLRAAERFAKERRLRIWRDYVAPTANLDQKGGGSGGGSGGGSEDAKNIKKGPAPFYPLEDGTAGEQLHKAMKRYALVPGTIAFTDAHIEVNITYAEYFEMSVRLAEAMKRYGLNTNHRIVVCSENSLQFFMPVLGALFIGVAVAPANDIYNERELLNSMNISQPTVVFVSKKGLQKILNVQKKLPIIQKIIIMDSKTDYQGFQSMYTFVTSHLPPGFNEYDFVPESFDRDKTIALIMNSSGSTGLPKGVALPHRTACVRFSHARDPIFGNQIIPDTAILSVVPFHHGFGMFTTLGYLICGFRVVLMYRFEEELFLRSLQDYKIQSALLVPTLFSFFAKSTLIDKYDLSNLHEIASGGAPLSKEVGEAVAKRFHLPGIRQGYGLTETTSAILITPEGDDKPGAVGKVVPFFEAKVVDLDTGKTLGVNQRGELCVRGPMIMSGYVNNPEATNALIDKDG

[2] = biological target: T2, MTDH-SND1 interaction: SND1-NLuc (human SND1 16-339aa fused via 3x GGGS linker to N-terminal firefly luciferase 1-416aa) + CLuc-MTDH (C-terminal firefly luciferase 398-550aa fused via 3x GGGS linker to human MTDH 386-407aa) (Homo sapiens, UniProt Q7KZF4); test: Cell-free split-luciferase assay of MTDH-SND1 interaction disruption, multiple doses (FIG. 3E); assay type: binding; settings: cell free (HEK293T lysates), curves fit, read-out: MTDH-SND1 interaction (split-luciferase) SND1-NLuc + CLuc-MTDH interaction domains IC50
T2 construct: CLuc (398-550)-GGGS linker-MTDH (386-407) with HA tag; expressed in HEK293T; cell-free split-luciferase complementation
T2 sequence (Q7KZF4 with tags, fused parts or gaps): as above
T2 sequence (Q86UE4 386-407 partner): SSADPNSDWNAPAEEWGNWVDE

4TO7 lung metastases = test: Established 4TO7 lung macrometastases; assay type: in vivo, Balb/C females
Method: For FIGS. 7A-7D, 2 k 4TO7 cells were injected into Balb/C females. 2 weeks after the injections, the mice were randomized based on lung metastasis that indicated by BLI, and were divided into four groups followed by vehicle, paclitaxel (Pac), and C26-A6 treatment alone or in combination. For Pac, the mice were treated with 20 mg/kg of Pac twice per week for the first two week and then once per week after that, For C26-A6, the mice were treated with 15 mg/kg of C26-A6 5 days per week. n=6 mice per group. Data represent mean±SEM.
FIG. 7A, Representative mice right before the treatment (week 2) and at week 10 are shown.
FIG. 7B, The BLI signal was quantified at week 2. Significance determined by one-way ANOVA analysis with Dunnett's test for multiple comparisons.
FIG. 7C, The metastasis progression of each individual is shown.
FIG. 7D, Survival rate in each group was analyzed. Significance determined by two-sided Log-rank test.
Lastly, to mimic the clinical scenario of adjuvant chemotherapy following surgical removal of the primary tumors, SCP28 mammary tumors were removed when they reached 5 mm in diameter, the mice were then randomly separated into four groups and subjected to the different treatment regimens as above. […] The mice were then treated with vehicle or paclitaxel and C26-A6 alone or in combination, and the metastasis progression was monitored by BLL.

[3] = biological target: T3, Linked-luc (NLuc and CLuc of firefly luciferase fused together) (Photinus pyralis, UniProt P08659, INS416[…]); test: Linked-luciferase (Linked-luc) counter screen, cell free; assay type: biochemical; settings: 50 μM peptide
T3 construct: made in house; host or cells: HEK293T cells, transient transfection of pcDNA3.1-NLuc-CLuc; crude cleared lysate
T3 sequence (P08659 with tags, fused parts or gaps INS416[withheld]): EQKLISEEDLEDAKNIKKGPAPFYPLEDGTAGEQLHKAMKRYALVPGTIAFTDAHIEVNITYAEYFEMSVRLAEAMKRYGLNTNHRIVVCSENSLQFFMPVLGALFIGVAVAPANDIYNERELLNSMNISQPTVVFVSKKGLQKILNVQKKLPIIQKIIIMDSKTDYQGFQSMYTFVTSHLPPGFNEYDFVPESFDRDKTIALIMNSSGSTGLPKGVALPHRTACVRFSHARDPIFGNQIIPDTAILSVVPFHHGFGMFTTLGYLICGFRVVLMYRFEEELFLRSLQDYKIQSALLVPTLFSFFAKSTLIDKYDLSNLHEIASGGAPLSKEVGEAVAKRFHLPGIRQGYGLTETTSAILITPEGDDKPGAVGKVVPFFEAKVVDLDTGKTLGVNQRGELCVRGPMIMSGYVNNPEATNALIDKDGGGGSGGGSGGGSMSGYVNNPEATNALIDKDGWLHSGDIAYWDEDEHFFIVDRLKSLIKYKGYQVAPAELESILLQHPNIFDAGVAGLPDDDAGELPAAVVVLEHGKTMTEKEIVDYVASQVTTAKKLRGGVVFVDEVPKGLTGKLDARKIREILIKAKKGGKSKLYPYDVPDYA
From the text: The interaction between SND1-NLuc and CLuc-MTDH was also validated with co-immunoprecipitation (Co-IP) experiments (FIG. 10B). In the presence of the compounds (inhibitors) that block MTDH-SND1 interaction, the reconstitution of luciferase activity was expected to be reduced (FIG. 3A). Meanwhile, considering the possibility that compounds capable of directly inhibiting the enzymatic activity of luciferase could also result in lower luciferase signal without any blocking effect on MTDH-SND1 interaction, Linked-luc that directly fuse NLuc and CLuc together was generated to be used in counter screening (FIG. 3A, right, and Table 3).
as §1, with “The protein lysates were centrifuged at 13,000 rpm for 10 min, and the supernatant were collected.” left out
For small chemical compound screening, white, flat-bottom, solid 384-well plates were used. […] The plates were incubated at 4° C. for 1 hr and luciferase activity at each well was measured.

MTDH-SND1 interaction [4] = biological target: T4, MTDH-SND1 interaction (Homo sapiens, UniProt Q7KZF4); test: Co-immunoprecipitation (Co-IP) in SCP28 lysates with anti-MTDH antibody, Western blot for SND1; assay type: binding; settings: 500 μM, SCP28 lysate
T4 construct: endogenous in cells; host or cells: SCP28 cells (lysate)
T4 sequence (Q7KZF4 2-910 limits assumed): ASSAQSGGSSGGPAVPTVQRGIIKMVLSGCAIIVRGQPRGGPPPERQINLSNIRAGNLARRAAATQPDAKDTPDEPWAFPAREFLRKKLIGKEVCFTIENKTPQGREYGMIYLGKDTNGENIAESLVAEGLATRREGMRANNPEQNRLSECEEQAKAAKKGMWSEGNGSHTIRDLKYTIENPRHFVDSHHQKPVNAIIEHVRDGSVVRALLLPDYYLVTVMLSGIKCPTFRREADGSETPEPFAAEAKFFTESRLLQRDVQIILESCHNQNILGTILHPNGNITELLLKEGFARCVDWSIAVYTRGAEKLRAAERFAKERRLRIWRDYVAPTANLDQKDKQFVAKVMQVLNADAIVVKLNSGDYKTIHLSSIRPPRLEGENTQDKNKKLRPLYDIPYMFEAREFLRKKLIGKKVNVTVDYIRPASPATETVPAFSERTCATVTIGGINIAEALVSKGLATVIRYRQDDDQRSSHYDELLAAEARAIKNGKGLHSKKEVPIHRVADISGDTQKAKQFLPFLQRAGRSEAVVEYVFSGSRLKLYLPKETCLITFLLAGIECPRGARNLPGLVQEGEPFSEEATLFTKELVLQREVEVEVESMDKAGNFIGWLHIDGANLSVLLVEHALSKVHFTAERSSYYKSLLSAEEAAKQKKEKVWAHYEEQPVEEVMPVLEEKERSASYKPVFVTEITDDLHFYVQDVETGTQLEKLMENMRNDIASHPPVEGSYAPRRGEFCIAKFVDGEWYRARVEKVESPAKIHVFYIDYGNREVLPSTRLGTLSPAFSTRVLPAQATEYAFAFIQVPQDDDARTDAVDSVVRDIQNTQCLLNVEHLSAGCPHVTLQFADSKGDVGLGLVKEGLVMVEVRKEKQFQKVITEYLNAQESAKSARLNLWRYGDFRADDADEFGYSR
Method: FIG. 3F, SCP28 cells grown confluent in each 10-cm dish were lysed with 1 ml IP lysis buffer. 500 μM of the compounds were added into each 1 ml of the samples and IP lysis buffer with 2 μg of anti-MTDH antibody. Western blot was then performed to detect SND1 that binds to MTDH.
FIG. 10E, Schematic diagram of Co-IP based confirmation of MTDH-SND1 inhibitory compounds (left). SCP28 cells were lysed for IP assay.2 μg of MTDH antibody together with 500 μM of MTDH wild type (Pep-WT) or mutant (Pep-MT) peptides were added into each 1 ml of samples. Red star indicates wild type MTDH peptide competing off SND1 that binds to MTDH.
Co-immunoprecipitation assay (Co-IP), which is a commonly used standard test to determine protein-protein interaction, was next employed to validate the candidates. Lysates of breast cancer cell line SCP28, a single cell-derived subline from the MDA-MB-231 TNBC cell line^25, was immunoprecipitated with anti-MTDH antibody alone or together with inhibitors (FIG. 3F and FIG. 10E). The samples were then incubated with Protein-A/G beads to pull down MTDH, followed by Western blot analysis to detect SND1. […] Using multiple screening and validation platforms, two classes of compounds, C26s and C32s, were obtained that inhibit MTDH-SND1 interaction.
Immunoprecipitation (IP) and western blotting (WB) analysis. For IP experiment, samples were prepared as previously described^32. 100 μl of the supernatant was transferred to a new tube as input, and the rest was incubated with 2 μg of IgG, anti-Myc (Santa Cruz, SC-40), or anti-MTDH (ThermoFisher, 40-6500) (as indicated in each experiment) overnight at 4° C. (small chemical compounds may be added at this step as indicated in each experiment). The rest standard IP procedures were performed as previously noted^32. […]

COc1ccc(Cl)cc1S(=O)(=O)Nc1cccn2c(C3CCC3)nnc12 [Analog C26]
IC50 (MTDH-SND1 interaction [1]): < 20 µM

COc1ccc(NC(=O)N2CCc3c(C(=O)NC4CCN(C)CC4)cccc32)cc1 [Analog C32]
IC50 (MTDH-SND1 interaction [1]): < 20 µM

COc1ccc(Cl)cc1S(=O)(=O)Nc1cccn2cnnc12 [Compound C26-A1]
IC50 [2]: 8.6 µM

COc1ccc(Cl)cc1S(=O)(=O)Nc1cccn2ncnc12 [Compound C26-A2]
IC50 [2]: 9.4 µM

COc1ccc(Cl)cc1S(=O)(=O)Nc1cccn2nc(C)nc12 [Compound C26-A6]
IC50 [2]: 2.4 µM

COc1ccc(Cl)cc1S(=O)(=O)Nc1cccn2c(C3CCC3)nnc12 [Compound C26]
IC50 [2]: 14.9 µM

COc1ccc(NC(=O)N2CCc3c(C(=O)NC4CCN(C5CC5)CC4)cccc32)cc1 [Compound C32-A2]
IC50 [2]: 14.5 µM

CNC(=O)c1cccc2c1CCN2C(=O)Nc1ccc(OC)cc1 [Compound C32-A4]
IC50 [2]: 4.9 µM

COc1ccc(NC(=O)N2CCc3c(C(=O)N(C)C)cccc32)cc1 [Compound C32-A5]
IC50 [2]: 4.6 µM

COc1ccc(NC(=O)N2CCc3c(C(=O)NC4CCN(C)CC4)cccc32)cc1 [Compound C32]
IC50 [2]: 51.1 µM

CC(=O)O[C@H]1C(=O)[C@@]2(C)[C@H]([C@H](OC(=O)c3ccccc3)[C@]3(O)C[C@H](OC(=O)[C@H](O)[C@@H](NC(=O)c4ccccc4)c4ccccc4)C(C)=C1C3(C)C)[C@]1(OC(C)=O)CO[C@@H]1C[C@@H]2O [paclitaxel, reference compound]
metastatic growth (BLI) (4TO7 lung metastases; Pac 20 mg/kg, C26-A6 15 mg/kg 5 days per week): slowed down metastatic growth
metastasis shrinkage (4TO7 lung metastases; six mice per group): did not result in metastasis shrinkage

PNSDANAPAEEAGNW [MTDH-MT, reference compound]
linked-luc activity [3]: not affected
split-luc activity (MTDH-SND1 interaction [1]): but not the mutant significantly inhibited split-luc activity

PNSDWNAPAEEWGNW [MTDH-WT, reference compound]
linked-luc activity [3]: not affected
split-luc activity (MTDH-SND1 interaction [1]): significantly inhibited split-luc activity
MTDH-SND1 interaction (SND1 that binds to MTDH, Co-IP) (MTDH-SND1 interaction [4]): blocks MTDH-SND1 interaction
